The test system of test [1] is live MCF-7 cells (human breast cancer cells). The experiment in a line: Imaging of live MCF-7 cells stained with compound by confocal laser scanning microscopy. The class given is cell-based. Particulars: 30 min at 37° C., excitation Cy5 channel (633 nm). The protocol: FIG. 6A is the white light image of live MCF-7 cells (human breast cancer cells) stained with compound A, 6B is the fluorescence image of live MCF-7 cells stained with compound A. The concentration of compound A is 2 μM. The equipment used is a confocal laser scanning microscope (TCS-SP2). Excitation channel: Cy5 (633 nm).
FIG. 7A is the white light image of live MCF-7 cells (human breast cancer cells) stained with compound D, 7B is the fluorescence image of live MCF-7 cells stained with compound D. The concentration of compound D is 1.5 μM. The equipment used is a confocal laser scanning microscope (TCS-SP2). Excitation channel: Cy5 (633 nm).
FIG. 8A is the white light image of live MCF-7 cells (human breast cancer cells) stained with compound E, and 8B is the fluorescence image of live MCF-7 cells stained with compound E. The concentration of compound E is 3 μM. The equipment used is a confocal laser scanning microscope (TCS-SP2). Excitation channel: Cy5 (633 nm).
The equipment used is a confocal laser scanning microscope (TCS-SP2). Excitation channel: Cy5 (633 nm).
(§1) MCF-7 cells are cultured in DEME (Invitrogen) supplemented with 10% FBS (Invitrogen). One day before imaging, cells are seeded in 24-well flat-bottomed plates. The next day, the live cells were incubated with 2 μM of compound A for 30 min at 37° C. under 5% CO2 and then washed with phosphate-buffered saline (PBS) three times, and then the fluorescence imaging was observed under confocal laser scanning microscopy with a 100× objective lens (excited with Cy5 channel). 1000× magnification was utilized in the imaging. The scale bar represents 20 μm. […] The equipment used is a confocal laser scanning microscope (TCS-SP2). Excitation channel: Cy5 (633 nm). The concentration of compound A is 2 μM.
as §1, with “with 1.5” for “with 2”, “compound D” for “compound A”, “(TCS-SP2). […]” for “(TCS-SP2). Excitation channel: Cy5 (633 nm). The concentration of compound A is 2 μM.”
MCF-7 cells are cultured in DEME (Invitrogen) supplemented with 10% FBS (Invitrogen). […] The next day, the live cells were incubated with 3 μM of compound E for 30 min at 37° C. under 5% CO2 and then washed with phosphate-buffered saline (PBS) three times, and then the fluorescence imaging was observed under confocal laser scanning microscopy with a 100× objective lens (excited with Cy5 channel). […]

The test system of test [2] is calf thymus DNA. The experiment in a line: Fluorescence intensity before and after addition of calf thymus DNA. Particulars: pH 7.0, 10 mM Tris-HCl buffer; dye 1 μM; calf thymus DNA 40 μg/mL. The class given is binding. As for the experimental part:
(§2) The ordinate is the fluorescence increasing fold. The equipment used is a spectrofluorophotometer (FP-6500). […] The concentrations of calf thymus DNA and bovine serum albumin are both 40 μg/mL.
(§3) Finally each mixture of dye and BSA solution is diluted with pH 7.0, 10 mM Tris-HCl buffer solution to 3 mL and the fluorescence emission spectra are determined respectively after stabilization. […] Finally each mixture of dye and calf thymus DNA solution is diluted with pH 7.0, 10 mM Tris-HCl buffer solution to 3 mL and the fluorescence emission spectra are determined respectively after stabilization. […] The equipment used is a spectrofluorophotometer (FP-6500).

The next test addresses bovine serum albumin (Bos taurus, UniProt P02769). Kind of test: Fluorescence intensity before and after addition of bovine serum albumin. The class given is binding. The following applies: pH 7.0, 10 mM Tris-HCl buffer; dye 1 μM; bovine serum albumin 40 μg/mL. The protocol: as §2, §3
Test [3] has as its system calf thymus DNA. The experiment in a line: Fluorescence emission spectra in the absence and presence of calf thymus DNA in buffer solution. The class given is binding. The following applies: dye 1 μM, calf thymus DNA 100 μM. The protocol: FIG. 1 is the comparison of fluorescence emission spectra of compound A with commercially available dye EB in the absence and presence of calf thymus DNA respectively in pH 7.36, 10 mM Tris-HCl buffer. The abscissa is wavelength (nm) and the ordinate is the relative fluorescence intensity. The equipments used are a UV-Vis spectrophotometer (Hp8453) and a spectrofluorophotometer (FP-6500). The concentrations of compound A, EB and calf thymus DNA are 1 μM, 1 μM and 100 μM respectively.
FIG. 2 is the comparison of fluorescence emission spectra of compound B with commercially available dye EB in the absence and presence of calf thymus DNA respectively in pH 7.4, 10 mM Tris-HCl buffer. The abscissa is wavelength (nm) and the ordinate is the relative fluorescence intensity. The equipments used are a UV-Vis spectrophotometer (Hp8453) and a spectrofluorophotometer (FP-6500). The concentrations of compound B, EB and calf thymus DNA are 1 μM, 1 μM and 100 μM, respectively.
FIG. 3 is the comparison of fluorescence emission spectra of compound C with commercially available dye EB in the absence and presence of calf thymus DNA respectively in pH 7.24, 10 mM Tris-HCl buffer. The abscissa is wavelength (nm) and the ordinate is the relative fluorescence intensity. […]
Determinations of the fluorescence emission spectra of compound A and commercially available dye EB in the absence and presence of calf thymus DNA respectively in buffer solution
Solutions of compound A in DMSO and EB in water are separately prepared with the concentrations of 1 mM. 3 μL of each solution is diluted with 10 mM Tris-HCl buffer solution (pH 7.36) to 3 mL in a cuvette to determine its fluorescence intensity. Solution of calf thymus DNA in water is prepared, whose concentration is determined as 1.5 mM by the adsorption at 260 nm in spectrophotometry (using the molar absorption coefficients of ε260 nm=6600 M^−1 cm^−1). […]
Determinations of the fluorescence emission spectra of compound B and commercially available dye EB in the absence and presence of calf thymus DNA respectively in buffer solution […]

Sequence of bovine serum albumin (P02769 25-607): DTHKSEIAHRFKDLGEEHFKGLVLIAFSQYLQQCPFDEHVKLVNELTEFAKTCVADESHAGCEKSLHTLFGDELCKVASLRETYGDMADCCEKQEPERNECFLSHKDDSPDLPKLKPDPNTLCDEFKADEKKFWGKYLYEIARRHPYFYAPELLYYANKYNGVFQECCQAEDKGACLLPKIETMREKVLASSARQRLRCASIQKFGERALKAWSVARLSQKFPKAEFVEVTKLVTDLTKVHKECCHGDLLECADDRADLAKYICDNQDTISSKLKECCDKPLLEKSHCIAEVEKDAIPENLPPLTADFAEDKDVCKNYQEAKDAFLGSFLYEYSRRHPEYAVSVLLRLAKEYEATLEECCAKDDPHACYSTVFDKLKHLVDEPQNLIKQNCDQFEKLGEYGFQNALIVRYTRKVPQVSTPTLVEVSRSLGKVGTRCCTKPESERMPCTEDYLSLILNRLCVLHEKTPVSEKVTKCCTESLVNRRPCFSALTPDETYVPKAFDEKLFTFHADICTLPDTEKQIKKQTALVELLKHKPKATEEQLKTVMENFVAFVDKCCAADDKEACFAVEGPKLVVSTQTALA

In the case of `CCN1C=C/C(=C\C=C\c2sc3ccccc3[n+]2CC)c2ccccc21` [M1, reference compound], in test [1] (2 μM), the “staining pattern of live MCF-7 cells (fluorescence image)” value (shortened to “staining pattern of live MCF-7 cells”) was “simultaneously nucleus and cytoplasm staining”. Further, the “fluorescence intensity increase upon binding to calf thymus DNA” value in the test with calf thymus DNA [2] is listed as 40 fold.

For `CCN(CC)CCCC[n+]1c(/C=C/C=C2\C=CN(CC)c3ccccc32)sc2ccccc21.[I-]` [compound A], the “staining pattern of live MCF-7 cells” value in test [1] (2 μM) is reported as “nucleus selective staining”. The “fluorescence intensity increase with BSA solution” value on bovine serum albumin is reported as 1.4 fold. Besides, the “fluorescence intensity increase upon binding to calf thymus DNA” value in the test with calf thymus DNA [2] is 45.5 fold. For the same compound, the “fluorescence increase upon binding to calf thymus DNA (I/I0)” value (from here on “fluorescence increase upon binding”) in the test with calf thymus DNA [3] (pH 7.36, 10 mM Tris-HCl buffer) turned out to be 55 fold.

Take `COc1ccc2c(c1)oc(/C=C/C=C1\C=CN(CCCN3CCCCC3)c3ccccc31)[n+]2CCCN1CCCCC1.[Br-]` [compound B]: the “fluorescence increase upon binding” value with calf thymus DNA [3] (pH 7.4, 10 mM Tris-HCl buffer) turned out to be 89 fold.

Consider `NCCNCCC[n+]1c(/C=C/C=C2\C=CN(CCO)c3ccccc32)sc2ccccc21` [compound C], for which the “fluorescence increase upon binding” value in the test on calf thymus DNA [3] (pH 7.24, 10 mM Tris-HCl buffer) was determined as 75 fold.

Regarding `CC1(C)C(/C=C/C=C2\C=CN(Cc3ccccc3)c3ccccc32)=[N+](CCCNc2ccccc2)c2ccc(Cl)cc21.[Br-]` [compound D], the “staining pattern of live MCF-7 cells” value in test [1] (1.5 μM) is given as “nucleus selective staining”.

`CCCNCC[n+]1c(/C=C/C=C2\C=CN(CCCl)c3cc(C)ccc32)[se]c2ccccc21.[Br-]` [compound E]: the “staining pattern of live MCF-7 cells” value in test [1] (3 μM) was “nucleus selective staining”.

These data come from patent US8298766B2, “Fluorescent dyes, methods of synthesis and applications thereof” (priority 2010, dated 2012).
